{
  "source": "patent US20250302846A1",
  "about": "“ANTIBIOTIC COMPOSITION AND METHODS OF USE THEREOF” (THE REGENTS OF THE UNIVERSITY OF COLORADO A BODY CORPORATE, priority 2022, published 2025)",
  "key": {"S. Typhimurium": {"test_system": "S. Typhimurium", "test": "Growth curves and kill curves", "type": "cell-based", "conditions": "outer-membrane perturbing conditions, D66 at 2x MIC, LB or MHB, 18 hours", "method": "FIG. 3A-F. D66 rapidly perturbs the bacterial cytoplasmic membrane with minor disruption of barrier function. Mid-log phase S. Typhimurium cells grown in LB with 0.5 μg/mL PMB were used for all experiments. A) Cell membrane potential was monitored with the fluorescent dye DiSC3 (5). Cells were treated at time 0 with DMSO, JD1 [70 μM], or D66. Data were normalized to DMSO at time 0 and corrected for the quenching effect of D66 (FIG. 6A, B) B) Cell membrane permeability was monitored by PI fluorescence. Cells were treated at time 0 with DMSO, SDS [0.005%] or D66. Samples were processed at the time points shown. A one-way ANOVA with a Dunnet's multiple comparison test, * P<0.005. C-F) Growth curves and kill-curves of cells treated at time 0 with either DMSO or D66. Culture aliquots were monitored for OD600 (C, E) or plated for enumeration of CFU (D, F). Data are presented as fold change. Mean and SEM of three biological replicates with technical triplicates are shown in all panels.\nGrowth curves and kill curves: Mid-log phase cultures were sampled at time 0 and then compound or vehicle control (DMSO) was added. Cultures were incubated at 37° C. with agitation. At the time intervals indicated, aliquots were monitored for OD600 and plated for CFU enumeration. Data for OD600 and CFU/mL were normalized to time 0."}, "S. Typhimurium SL1344": {"test_system": "S. Typhimurium SL1344", "test": "Novobiocin potentiation (checkerboard) assay", "type": "cell-based", "conditions": "LB, 18 hours, D66 up to 150 μM, novobiocin up to 100 μg/mL", "method": "A, B) Dose response curves monitoring S. Typhimurium (SL1344) or E. coli (K12) growth from an OD600 of 0.01, normalized to growth in 2% DMSO under the indicated condition. Mean and SEM of at least three biological replicates performed with technical triplicates; curve fit: sigmoidal, 4P L. C-E) Checkerboard assays of S. Typhimurium SL1344 growth from an OD600 of 0.01 in LB for 18 hours with novobiocin (up to 100 μg/mL) and (C) PMB (up to 48 μM), (D) JDI (up to 150 μM), or (E) D66 (up to 150 μM). Growth was normalized to growth in 2% DMSO, with the darkest blue representing 100% growth and white representing 0%.\nNovobiocin potentiation assays: Overnight LB-grown cultures were diluted in LB to an optical density at 600 nm (OD600) of 0.01 and distributed into polystyrene 96-well flat-bottom plates (Greiner, 655185). […] The final DMSO concentration was at or below 2%. Plates were grown at 37° C. with shaking for 18 hours and OD600 was monitored (BioTek Synergy H1)."}, "[1]": {"test_system": "one-day-old staphylococcal biofilms", "test": "One-day-old staphylococcal biofilms", "type": "cell-based", "conditions": "biofilms established 24 hours in TSB, treated 18 hours", "method": "For the indicated strain, biofilms established in TSB for 24 hours were treated for 18 hours with DMSO, rifampin (1x MIC95=0.05 μg/mL), vancomycin (1x MIC95=1 μg/mL), or D66. The remaining biofilm (A-D) matrix was quantified with crystal violet or E-F) volume was quantified after Syto9 and PI staining as in FIG. 5. G, H) Syto9 and PI-stained Z-stacked images were converted to volumes. Volume data were compiled and reconstructed in Nikon Elements Advanced Research software using a color-coded volume display where blue is the bottom, lowest Z-stack and magenta is the highest point for each sample. Scale bar is in um.\nAsterisks indicate P≤0.05 as determined by one-way ANOVA compared to DMSO. A-D are means and SEMs from three biological replicates performed in triplicate. E-F are means and SDs of one of two replicates derived from a minimum of four fields of view. G-H are representative images from this same replicate as in E-F."}, "RAW 264.7 cells": {"test_system": "RAW 264.7 cells", "test": "LDH release assay", "type": "cell-based", "method": "FIG. 5A-C. […] Mice were euthanized 48 hours after infection. […] Significance was determined by Mann-Whitney.\nLDH assays: An LDH-cytotoxicity assay kit (Abcam ab65393) was used according to the manufacturer's instructions. RAW 264.7 cells were seeded and remained uninfected or with infected as described for the CFU assay with SL1344."}, "[2]": {"test": "Murine tolerability after a single dose", "type": "in vivo, C57BL/6 mice", "conditions": "mice", "method": "Murine pharmacokinetic analyses and infections: Three female C57BL/6 mice were injected intraperitoneally (IP) with 50 mg/kg of D66 formulated in DMSO (50 μL). […] Three mice were initially dosed and observed for 24 hours to determine tolerability. […] Plasma D66 levels were measured using a liquid chromatography coupled to tandem mass spectrometry (LC/MS/MS) assay by the University of Colorado Cancer Center Drug Discovery and Development Shared Resource. The assay used monitored the transition of D66 (376 m/z->176 m/z) and was linear from 1-1000 ng/ml with an accuracy and precision of 90.3%+10.4% (% CV) based on quality control (QC) samples included with analyzed unknown samples."}, "[3]": {"test_system": "staphylococcal persister cells", "test": "Staphylococcal persister cell viability in broth", "type": "cell-based", "conditions": "overnight cultures in broth, D66 at MIC95", "method": "A-D) Overnight cultures of the indicated strains were treated at time 0 with DMSO, ciprofloxacin [4 μg/mL], vancomycin [10 μg/mL], or the corresponding MIC95 concentration of D66 (1x MIC95=130 μM, 49 μg/mL). Cultures were plated for enumeration of CFU at time points indicated. Mean and SEM of three biological replicates. E) RAW 264.7 macrophage-like cells and HeLa cells were infected with S. aureus USA300, at MOIs of 0.5 and 2.5, respectively. Cells were treated two hours after infection with DMSO (gray circle on Y axis), or dilutions of D66 from 40 μM. After 8 hours of infection, cells were lysed and plated for enumeration of CFU. Mean and SEM of biological duplicates performed with technical triplicates each with six dilutions of D66. The IC50 value that was calculatable is indicated."}},
  "data": [
    {"smiles": "O=C(Nc1cc(Cl)cc(Cl)c1)N1CCCN(Cc2ccccc2)CC1", "note": "[D66]", "values": [
      {"measurement": "absorbance and CFU of bacteria (cell lysis)", "setting": "S. Typhimurium", "result": "did not reduce the absorbance nor the CFU of bacteria"},
      {"measurement": "potentiation of growth inhibition with novobiocin", "setting": "S. Typhimurium SL1344", "result": "did not potentiate novobiocin"},
      {"measurement": "number of live cells in one-day-old biofilms", "setting": "[1]", "result": "decreases the number of live cells"},
      {"measurement": "LDH release", "setting": "RAW 264.7 cells; RAW 264.7 cells infected with S. Typhimurium SL1344, 16 hours", "result": "reduced the percentage of cells that released LDH in a dose-dependent manner"},
      {"measurement": "LDH release", "setting": "RAW 264.7 cells; uninfected RAW 264.7 cells, 16 hours", "result": "little effect on LDH release"},
      {"measurement": "observable toxicity and gross pathological lesions in liver, kidney, and gastrointestinal tissues", "setting": "[2]; 50 mg/kg IP, observed for 24 hours", "result": "lack of observable toxicity and gross pathological lesions"},
      {"measurement": "adverse effects (hunching, tachypnea, or abnormal ambulation)", "setting": "[2]; single intraperitoneal dose of 50 mg/kg, after 24 hours", "result": "No adverse effects"},
      {"measurement": "number of viable staphylococcal persister cells", "setting": "[3]", "result": "did not reduce the number of viable staphylococcal persister cells in broth"}
    ]}
  ]
}
